From US20240173432A1, “Compositions and Methods for Treatment of Myotonic Dystrophy Type 1 with CRISPR/SluCas9” (Vertex Pharmaceuticals Incorporated, priority 2021, published 2024)

What was measured:
[1] = system: CAG foci in primary DM1 patient myoblasts; assay: Single-cut screening: CAG foci staining; type: cell-based, human; conditions: single sgRNA; for % of CAG foci positive nuclei (DNA-PKi): DNA-PKi treated
Outline: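 Primary DM1 patient myoblasts were PFA-fixed and hybridized with […] (1 ng/μL, 15 min at 80° C) in 30% formamide/2×SSC, followed by anti-MBNL1 immunostaining and Hoechst counterstain. CAG RNA foci were quantified by high-content confocal imaging after single-cut SuCas9 sgRNA editing.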

[2] = system: 3′ UTR of the human DMPK gene; assay: Single-cut screening: indel editing efficiency by Sanger sequencing and ICE analysis in primary DM1 patient myoblasts; type: cell-based; conditions: single SluCas9 sgRNA RNP in primary DM1 patient myoblasts; Sanger sequencing and ICE analysis; vehicle-treated samples
Outline: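 Indels were estimated by ICE from Sanger chromatograms of PCR amplicons covering the DMPK 3′ UTR wild-type allele, using only vehicle-treated samples; sgRNAs with R2<0.9 are flagged. Samples came from primary DM1 patient myoblasts (2 × 10^5) harvested 72 h after nucleofection with 30 pmol SluCas9 and 90 pmol single sgRNA RNP.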

[3] = system: CUG foci in primary DM1 patient myoblasts; assay: Single-cut screening: FISH staining of CUG RNA foci; type: cell-based, human; conditions: single sgRNA, primary DM1 patient myoblasts; for % of CUG foci free nuclei (DNA-PKi): DNA-PKi treated
Outline: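 CD56-purified primary DM1 patient myoblasts nucleofected with SluCas9:sgRNA RNP (30:90 pmol, single-cut), then DMSO or 3 μM DNA-PK inhibitor for 48 h. At 72 h post-nucleofection, cells fixed and stained for CUG foci with Cy3-PNA(CAG)5 probe (1 ng/μL, 80 °C), co-stained for MBNL1 and Hoechst, imaged by high-content confocal microscopy.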

| Sequence | % of CAG foci positive nuclei (DNA-PKi) [1] [%] | % of CAG foci positive nuclei (Vehicle) [1] [%] | Indel efficiency [2] [%] | % of CUG foci free nuclei (DNA-PKi) [3] [%] | % of CUG foci free nuclei (Vehicle) [3] [%] |
| --- | --- | --- | --- | --- | --- |
| GGCCTTTTATTCGCGAGGGTCG (guide RNA; chemistry not fully specified) [SluD94] | 1.32 | 1 | 30 | 27.23 | 18.18 |
| GGCGCGATCTCTGCCTGCTTAC (guide RNA; chemistry not fully specified) [SluD36] | 2.32 | 3.24 | 52 | 29.02 | 13.52 |
| GGCGCGGCTTCTGTGCCGTGCC (guide RNA; chemistry not fully specified) [SluU16] | 1.73 | 1.28 | 7 | 27.5 | 10.73 |
| GGGCCTTTTATTCGCGAGGGTC (guide RNA; chemistry not fully specified) [SluD95] | 2.19 | 1.3 | 28 | 27.23 | 21.81 |
| GGGCGCGGGATCCCCGAAAAAG (guide RNA; chemistry not fully specified) [SluD43] | 0.82 | 1.31 | 1 | 20.27 | 6.41 |
| GGGGCGCGGGATCCCCGAAAAA (guide RNA; chemistry not fully specified) [SluD44] | 2.29 | 1.49 | 24 | 36.44 | 8.05 |
| GGGGGTGCGTGGAGGATGGAAC (guide RNA; chemistry not fully specified) [SluD20] | 1.1 | 1.81 | 24 | 24.59 | 13.32 |
| GGGGTCTCAGTGCATCCAAAAC (guide RNA; chemistry not fully specified) [SluD78] | 1.36 | 2.31 | 4 | 27 | 12.61 |
| GGGTCGGGGGTGGGGGTCCTAG (guide RNA; chemistry not fully specified) [SluD87] | 2.19 | 1.3 | 30 | 39.12 | 15.16 |
| GGTCCTGTAGCCTGTCAGCGAG (guide RNA; chemistry not fully specified) [SluD69] | 2.13 | 1.3 | 14 | 27.98 | 10.88 |
| GGTCGGGGGTGGGGGTCCTAGG (guide RNA; chemistry not fully specified) [SluD86] | 3.95 | 1.98 | 30 | 31.62 | 11.98 |
| GTATTTATTGTCTGTCCCCACC (guide RNA; chemistry not fully specified) [SluD84] | 3.03 | 1.28 | 10 | 30.25 | 9.15 |
